{
  "source": "patent US10676747B2",
  "about": "“Methods for improving cognitive function via modulation of quinone reductase 2” (Carmel-Haifa University Economic Corp. Ltd., priority 2014, dated 2020)",
  "key": {"[1]": {"tested_on": "rats", "assay": "Novel taste (saccharin) choice test after injection of QR2 shRNA virus into the IC", "format": "in vivo, rat", "conditions": "lentivirus injected into IC; choice test three days after saccharin; mean+/-SEM, n=12", "method": "Micro-infusion—Rats were anesthetized with Equithesin (0.45 ml/100 g) (2.12% w/v MgSO4, 10% v/v ethanol, 39.1% v/v 1,2,-propranolol, 0.98% w/v sodium pentobarbital, and 4.2% w/v chloral hydrate), restrained in a stereotactic apparatus (Stoelting, USA) and injected bilaterally with a 10 mm 28 gauge injection cannula aimed at the rat gustatory cortex (anteroposterior, +1.2 mm relative to bregma; lateral, ±5.5 mm; ventral, −5.5 mm; (Paxinos and Watson, 1986). The injection cannula was connected via PE20 tubing to a Hamilton microsyringe driven by a micro-infusion pump (CMA/100; Carnegie Medicin). […] The injection cannula was left in position before withdrawal for an additional 1 min to minimize dragging of the injected liquid along the injection tract. To avoid lateral bias, animals were injected interchangeably between both sides. Following the microsurgery, animals were injected i.m. with antibiotic and were allowed to recuperate for one week. […]\nPreference index—the preference index was calculated by the following equation [(total novel taste liquid ingested/(novel taste liquid ingested+water ingested))*100]. […]"}, "[2]": {"tested_on": "rats", "assay": "Memory extinction following a CTA paradigm in QR2 shRNA injected animals", "format": "in vivo, rat", "conditions": "repeated measure ANOVA; FIG. 11", "method": "Aversion index—the aversion index is calculated by the following equation [(total water ingested/(novel taste liquid ingested+water ingested))*100].\nConditioned Taste Aversion (CTA)—Two groups of rats were deprived from water for a period of 24 hours. This was followed by 3 days of restriction were the rats received two pipettes each filled with 10 ml of water for 20 minutes each day. On the fourth day both groups received two pipettes each filled with 10 ml of an unfamiliar tasting liquid, either saccharine (0.1% w/v) or NaCl (0.3% w/v), for 20 minutes. Forty minutes following the exposure to the novel liquid the rats in the experimental group received an injection of LiCl (prepared in double distilled water (DDW)) (2% bodyweight, intraperitoneally (i.p.)) and those in the control received an injection of physiological saline (2% bodyweight, i.p.)."}, "[3]": {"tested_on": "QR2 mRNA", "assay": "QR2 mRNA expression in primary cortical cells treated with QR2 shRNA lentiviral clones", "format": "cell-based", "conditions": "rat primary cortical cells, week long incubation, compared to scrambled virus; FIG. 8", "procedure": "(§1) mRNA quantification—We used the RNeasy lipid tissue kit (QIAGEN) according to the manufacturer's instructions in order to extract the RNA. We then evaluated RNA concentration and purity using a nanodrop spectrophotometer.\n(§2) The cDNA synthesis was accomplished using the High Capacity Reverse Transcription Kit (ABI) according to the manufacturer's instructions. The reaction was carried out in a total volume of 20 μl on 1000 ng of RNA.\n(§3) The qPCR reaction was performed in a total volume of 10 μl on 10 ng of cDNA. We used the following TaqMan assays (Applied Biosystems): QR2 (Rn01434728_g1), NQO1 (RN00566528_m1), glyceraldehyde-3-phosphate dehydrogenase, GAPDH (Rn01775763_g1). The reactions were carried out per the manufacturer's instructions.\n(§4) Real Time-PCR analysis was performed using the PCR System STEP-ONE plus (Applied Biosystems). Relative mRNA levels were calculated using the ΔΔCt method using GAPDH as a normalizing gene: ΔΔCt=[(Ct(gene of interest)−Ct(GAPDH)) of the untreated group]−[(Ct(gene of interest)−Ct(GAPDH)) of the treated group]. The fold increase is then calculated as such: fold increase=2−ΔΔCt. […]\nFor this purpose, we evaluated three different clones (Sigma-Aldrich, Israel). […] We then evaluated QR2 mRNA expression."}, "[4]": {"tested_on": "QR2 mRNA", "assay": "QR2 mRNA expression in the IC after stereotactic injection of QR2 shRNA virus (RT-PCR)", "format": "in vivo, rat", "conditions": "compared to scrambled virus group, n=12, p<0.005; FIG. 12", "procedure": "Tissue extraction—Following the learning protocol the insular cortex was removed by hand. The insular cortex was identified through cortical landmarks, the rhinal fissure and the medial cerebral artery. The insular cortex was immediately placed in liquid nitrogen and then stored at −80° C.\nas §1, §2, §3, §4"}, "[5]": {"tested_on": "mice", "assay": "Morris Water Maze after QR2 shRNA injection into hippocampus (CA1 region)", "format": "in vivo, mouse", "method": "M&M—Spatial reference memory in the Morris Water Maze (MWM) was determined as previously described (Vorhees, Williams 2006). The pool was 1.2 m in diameter and the water was rendered opaque by the addition of white tempera. Water temperature was kept at 22° C. The platform was 8 cm in diameter. All behavioral tests and trials were performed at the same time of day (±1 hr) during the animal's light phase. The mice were acclimatized in testing room for 15 min. Mice were trained in four trials per day (trial length 60 s with 30 s ITI), over 4 consecutive days. If an animal fails to locate the platform within training time, it is usually picked up and placed on the platform for 15 s. For probe trials, the platform was removed from the maze and the animals were allowed to search for 60 s. Learning was evaluated by monitoring escape latencies to a hidden (submerged) platform and time spent in each quadrant of the maze (quadrant occupancy) with an automated video tracking system, and the data analyzed by EthoVision XT9 (Noldus Information Technology, USA). Swimming speed was similar in QR2 shRNA and scrambled injected animals (data not shown)."}, "[6]": {"tested_on": "mice", "assay": "Delay fear conditioning test after QR2 shRNA lentivirus injection into the CA1 region of hippocampus", "format": "in vivo, mouse", "method": "M&M—A delay fear conditioning test was performed on two groups of mice (10 mice per group) injected with Lentivirus encoding the QR2 shRNA or a scrambled sequence one week before the experiment. The Lentivirus was injected in to the CA1 region of hippocampus. The conditioning apparatus used was four New Biotechnology Ltd. (NBT) chambers, (Panlab Harvard Apparatus, Barcelona, Spain) consisting of a Plexiglas walls (25×25×25 cm) with a 16 stainless steel rods grid floor, a dim light and speakers. The apparatus was located inside a sound proof larger, insulated plastic cabinet that excluded outside light and noise. On day 1 (training), the mice were transported to the nearby testing room and set next to the conditioning chambers for a 5 min resting period with lights off. Each chamber was wiped with 30% ethanol solution before training and each mouse was placed in the chamber individually during training. For delay fear conditioning, mice were pre-exposed to an experimental chamber for 5 min, and received 5 trials in which 4000 Hz, tone, applied for 10 seconds at 76 dB (conditioned stimuli; CS) co-terminated by a 0.36 mA foot shock applied for 2 second (unconditioned stimuli; US), separated by 3.5 min inter-trial interval (ITI). After the last training trial, the mice were left in the conditioning chamber for another 120 s and were then placed back in their home cages.\nOn day 2 and day 8 (1 week later) (context fear test), the mice were returned to the same experimental chamber with the same contextual configuration for 10 min. Freezing behavior was recorded. On the third day and day 9 (1 week later) (tone fear test), the mice were set next to the conditioning chambers for a 5 min resting period with lights on, then mice were placed into the same experimental chamber, with novel contextual configuration (no light, and a smooth black Plexiglas floor), for 5 min during which freezing was record under infra-red light source. […] The animals' behavior was recorded, and the data analyzed by Freeze Frame 3.0 software (Coulbourn Instruments, PA, USA). […]"}},
  "data": [
    {"substance": "v394: shRNA construct directed against mouse QR2 (Sigma-Aldrich clone), subcloned into lentiviral plasmid pFUGW; chosen clone used for the injected virus (CCGGCAGUCACUGUGUCUGAUUUAUCUCGAGAUAAAUCAGACACAGUGACUGUUUUUG)", "values": [
      {"measurement": "Preference index (PI)", "setting": "[1]", "result": "76.3+/−2.14"},
      {"measurement": "Memory extinction (aversion index over time)", "setting": "[2]", "result": "significant extinction on Day 3"},
      {"measurement": "QR2 mRNA expression", "setting": "[3]", "result": "slightly more effective"},
      {"measurement": "QR2 mRNA expression in the IC", "setting": "[4]", "result": "significantly lower QR2 mRNA expression"},
      {"measurement": "Quadrant occupancy (time in target quadrant), probe test", "setting": "[5]; after completion of training, vs scrambled injected mice, p=0.031", "result": "preferential quadrant occupancy"},
      {"measurement": "Escape latency to hidden platform", "setting": "[5]; day 4 of training, vs scrambled injected mice, p=0.036", "result": "shorter latency"},
      {"measurement": "Swimming speed", "setting": "[5]; vs scrambled injected animals, data not shown", "result": "similar"},
      {"measurement": "Crossings of the platform location, probe test", "setting": "[5]; vs scrambled injected mice, p=0.029", "result": "more times"},
      {"measurement": "Long term memory (response to conditioned context and tone)", "setting": "[6]; 1 week later, vs scrambled sequence, context p=0.03, tone p=0.031", "result": "enhanced long term memory"},
      {"measurement": "Freezing response, context test", "setting": "[6]; day 2, vs scrambled sequence, n=10, p=0.031", "result": "froze significantly frequently"},
      {"measurement": "Freezing response, tone test", "setting": "[6]; day 3, vs scrambled sequence, n=10, p=0.003", "result": "froze significantly frequently"}
    ]}
  ]
}
